Assay results from patent publication US20040063790A1, “Methods for inhibition of angiogenesis” (The Scripps Research Institute, priority 1996, published 2004).
[ ]: non-standard residue; d: D form.

Tests used:
[1] = target: T1, immobilized αvβ3 receptor (Homo sapiens, UniProt P05106+P06756); experiment: Ligand receptor binding assay with ELISA detection
T1 construct: selected purified integrins were separately immobilized in Titertek microtiter wells
Experimental: In addition, the ability of peptides to inhibit the binding of either MMP-2 or VN to immobilized αvβ3 was assessed with peptides 69601 (SEQ ID NO: 6) and 66203 (SEQ ID NO: 5).

[2] = test system: bFGF-induced angiogenesis; experiment: CAM assay, growth factor-induced angiogenesis, intravenous application; assay type: in vivo, chick; settings: for inhibition of bFGF-induced angiogenesis (branch points): intravenous 18 hours after bFGF induction, FIG. 12
Experimental: J. Pathol., 79:597 (1975). CAMs were prepared from chick embryos for subsequent induction of angiogenesis and inhibition thereof as described in Examples 4 and 5, respectively. Ten day old chick embryos were obtained from McIntyre Poultry (Lakeside, Calif.) and incubated at 37° C. with 60% humidity. A small hole was made through the shell at the end of the egg directly over the air sac with the use of a small crafts drill (Dremel, Division of Emerson Electric Co. Racine Wis.). A second hole was drilled on the broad side of the egg in a region devoid of embryonic blood vessels determined previously by candling the egg. […] A 1.0 centimeter (cm)×1.0 cm square window was cut through the shell over the dropped CAM with the use of a small model grinding wheel (Dremel). The small window allowed direct access to the underlying CAM.
Angiogenesis was induced by placing a 5 millimeter (mm)×5 mm Whatman filter disk (Whatman Filter paper No.1) saturated with Hanks Balanced Salt Solution (HBSS, GIBCO, Grand Island, N.Y.) or HBSS containing 150 nanograms/milliliter (ng/ml) recombinant basic fibroblast growth factor (bFGF) (Genzyme, Cambridge, Mass.) on the CAM of a 10-day chick embryo in a region devoid of blood vessels and the windows were latter sealed with tape. In other assays, 125 ng/ml bFGF was also effective at inducing blood vessel growth. For assays where inhibition of angiogenesis ws evaluated with intravenous injections of antagonists, angiogenesis was first induced with 1-2 μg/ml bFGF in fibroblast growth medium. Angiogenesis was monitored by photomicroscopy after 72 hours. CAMs were snap frozen, and 6 um cryostat sections were fixed with acetone and stained by immunofluorescence as described in Example 3C with 10 μg/ml of either anti-β1 monoclonal antibody CSAT or LM609.
For CAM preparations in which angiogenesis was induced with 1-2 μg/ml bFGF as previously described, synthetic peptides 69601 (control) and 66203 (SEQ ID NO: 5) were separately intravenously injected into CAM preparations 18 hours after bFGF induction of angiogenesis. The preparations were maintained for an additional 36-40 hours after which time the number of branch points were determined as previously described.
In other assays, peptide 85189 (SEQ ID NO: 15) was evaluated for inhibiting bFGF-induced angiogenesis in the CAM assay over a dosage range of 10 μg/embryo to 300 μg/embryo. The assay was performed as previously described.
In still further assays, peptide 85189 was compared to peptides 69601 and 66203 for anti-angiogenesis activity. The assay was performed as described above with the exception that 50 μg peptide were used.
The effectiveness of the different salt formulations of peptide 85189 was also evaluated in similar bFGF-induced CAM assays. The peptides were used at 100 μg/embryo. […] Untreated CAMs, labeled as “no cytokine” had approximately […] as many branch points as that seen with bFGF treatment, respectively 70 versus 190.
With the above-described protocol, the effect of MMP-2 fusion proteins, CTMMP-2(2-4), also referred to as CTMMP-2(445-467) and CTMMP-2(10-1), also referred to as CTMMP-2(274-637) was also evaluated. The assay was performed as previously described with the exception that 50 μg of fusion protein was administered to the bFGF-treated embryos. The effect of fusion protein treatment was assessed at 24 hours, 48 hours and 72 hours.
The 10 day old CAM preparation was used as previously described in Example 5A. Twenty-four hours after bFGF-induced angiogenesis was initiated, the organic peptidomimetics referred to as compounds 16 (81218), 17 (87292) and 18 (87293) were separately intravenously injected into the CAM preparation in a volume of 100 μl at a concentration of 1 mg/ml (100 μg/embryo) in 20% tetraglycol-PBS at pH 7.0. In parallel assays, compounds 7 (96112), 9 (99799), 10 (96229), 12 (112854) and 14 (96113) were similarly evaluated. […]

[3] = test system: human M21-L melanoma tumor; experiment: Tumor regression in the CAM assay, M21-L; assay type: in vivo, chick
Experimental: (§1) As described in Example 5, in addition to visually assessing the effect of anti-αvβ3 antagonists on growth factor or tumor induced angiogenesis, the effect of the antagonists was also assessed by measuring any changes to the tumor mass following exposure. For this analysis, the tumor-induced angiogenesis CAM assay system was prepared as described in Example 4C. At the end of the 7 day incubation period, the resulting tumors were resected from the CAMs and trimmed free of any residual CAM tissue, washed with 1 ml of phosphate buffer saline and wet weights were determined for each tumor.
(§2) To further assess the effects of αvβ3 antagonists on tumor growth and survival, fragments of human melanoma and fragments of carcinomas of the lung, pancreas, and larynx were placed on CAMS of 10-day old embryos as described in Example 3A.
Human M21-L melanoma tumor fragments (50 mg) were implanted on the CAMs of 10 day old embryos as described in Example 3A and 3C. Twenty four hours later, embryos received a single intravenous injection of 300 μg/100 μl of either the cyclo-RADfV (69601) and or cyclo-RGDfV (66203). After a total of 72 hours, tumors were removed, examined morphologically, and photographed with a stereo microscope.
Additional tumor regression assays were performed with the αvβ3-reactive peptide 85189 (SEQ ID NO: 15) against 69601 as a control. […]

FgM tumors = experiment: Tumor regression in the CAM assay, FgM; assay type: in vivo, chick; settings: 100 μg intravenously 18 hours post-implantation; FIG. 17
Experimental: as §1, §2
Additional tumor regression assays were performed with the αvβ3-reactive peptide 85189 (SEQ ID NO: 15) against 69601 as a control. The assays were performed as described above with the exception that 100 μg of peptide was intravenously injected into the CAM at 18 hours post-implantation. After 48 hours more, the tumors were then resected and wet weights were obtained.

T1 sequence (P06756 31-889 limits assumed): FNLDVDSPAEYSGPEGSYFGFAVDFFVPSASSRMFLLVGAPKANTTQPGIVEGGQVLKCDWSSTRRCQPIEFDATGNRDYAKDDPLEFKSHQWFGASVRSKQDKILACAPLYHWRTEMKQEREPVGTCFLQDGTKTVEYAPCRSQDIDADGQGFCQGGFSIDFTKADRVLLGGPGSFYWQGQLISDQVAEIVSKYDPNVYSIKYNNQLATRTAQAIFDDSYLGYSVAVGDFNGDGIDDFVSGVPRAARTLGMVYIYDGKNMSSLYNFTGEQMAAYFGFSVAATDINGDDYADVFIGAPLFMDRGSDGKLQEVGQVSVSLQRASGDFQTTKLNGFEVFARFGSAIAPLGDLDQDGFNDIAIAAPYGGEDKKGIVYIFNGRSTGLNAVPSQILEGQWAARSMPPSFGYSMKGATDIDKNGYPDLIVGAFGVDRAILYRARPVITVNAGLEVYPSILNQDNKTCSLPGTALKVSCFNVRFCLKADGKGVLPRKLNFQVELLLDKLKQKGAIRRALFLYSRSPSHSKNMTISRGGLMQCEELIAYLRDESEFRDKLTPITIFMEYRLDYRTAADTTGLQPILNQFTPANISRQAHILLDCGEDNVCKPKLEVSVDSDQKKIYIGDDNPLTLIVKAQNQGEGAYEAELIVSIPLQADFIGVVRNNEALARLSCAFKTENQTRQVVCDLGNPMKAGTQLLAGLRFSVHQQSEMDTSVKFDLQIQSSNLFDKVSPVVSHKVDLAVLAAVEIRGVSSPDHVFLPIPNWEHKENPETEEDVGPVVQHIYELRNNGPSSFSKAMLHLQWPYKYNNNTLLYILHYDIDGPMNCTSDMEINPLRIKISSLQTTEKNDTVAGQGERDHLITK
T1 sequence (P06756 891-1048 partner limits assumed): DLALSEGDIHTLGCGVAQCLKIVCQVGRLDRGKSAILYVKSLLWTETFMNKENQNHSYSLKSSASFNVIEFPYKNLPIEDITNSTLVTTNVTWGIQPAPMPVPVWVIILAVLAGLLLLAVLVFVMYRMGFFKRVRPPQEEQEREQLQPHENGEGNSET
T1 sequence (P05106 27-788): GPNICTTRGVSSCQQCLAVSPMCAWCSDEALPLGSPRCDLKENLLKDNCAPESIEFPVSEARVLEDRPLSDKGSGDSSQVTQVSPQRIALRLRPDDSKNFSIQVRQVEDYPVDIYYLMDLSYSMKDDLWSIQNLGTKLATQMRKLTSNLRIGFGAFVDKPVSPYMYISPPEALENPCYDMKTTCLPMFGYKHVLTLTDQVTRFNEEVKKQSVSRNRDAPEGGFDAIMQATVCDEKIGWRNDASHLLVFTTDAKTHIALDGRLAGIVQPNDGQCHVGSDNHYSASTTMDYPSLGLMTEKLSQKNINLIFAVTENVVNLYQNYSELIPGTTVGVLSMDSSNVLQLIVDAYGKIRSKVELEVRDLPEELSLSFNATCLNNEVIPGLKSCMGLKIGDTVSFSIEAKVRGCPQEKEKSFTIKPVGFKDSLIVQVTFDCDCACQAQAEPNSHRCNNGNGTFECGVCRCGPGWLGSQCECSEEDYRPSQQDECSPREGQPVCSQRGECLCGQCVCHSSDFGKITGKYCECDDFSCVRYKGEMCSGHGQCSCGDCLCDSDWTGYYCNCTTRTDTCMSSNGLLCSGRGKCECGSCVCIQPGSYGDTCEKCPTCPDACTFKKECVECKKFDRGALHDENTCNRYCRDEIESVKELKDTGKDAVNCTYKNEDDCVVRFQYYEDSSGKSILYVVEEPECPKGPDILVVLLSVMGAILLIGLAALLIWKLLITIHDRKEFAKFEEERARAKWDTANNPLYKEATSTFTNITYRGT

Substance	inhibition of binding of MMP-2 or VN to immobilized αvβ3 [1]	inhibition of bFGF-induced angiogenesis, salt formulations ([2]; 100 μg/embryo)	number of branch points ([2]; 100 μg/embryo, bFGF alone 190, no cytokine 70) [branch points]	inhibition of bFGF-induced angiogenesis (branch points) [2]	effect on tumor weight, M21-L ([3]; 100 μg intravenously 18 hours post-implantation, FIG. 16)	effect on tumor weight, FgM (FgM tumors)	inhibition of bFGF-mediated angiogenesis ([2]; 50 μg peptide, FIG. 14)	inhibiting angiogenesis, HCl versus TFA peptide ([2]; assays of Example 5)	inhibition of vessel formation in tumor ([3]; single intravenous injection of 300 μg/100 μl, 72 hours)
cyclo (RADfV) (cyclo(RAD[dF]V); SMILES CC(C)[C@@H]1NC(=O)[C@@H](Cc2ccccc2)NC(=O)[C@H](CC(=O)O)NC(=O)[C@H](C)NC(=O)[C@H](CCCNC(=N)N)NC1=O) [Peptide 69601, reference compound]	failed to have an effect with either ligand	no effect on inhibiting angiogenesis	230	absence of inhibition	lack of effect	lack of effect	–	–	–
cyclo (RGDfV) [Peptide 66203]	effective at inhibiting the binding of either substrate	–	–	completely inhibited	–	–	effective inhibitors of bFGF-mediated angiogenesis	slightly more effective	inhibited vessel formation
